Assay results from ChEMBL document CHEMBL1127949, “GR159897 and related analogues as highly potent, orally active non-peptide neurokinin NK2 receptor antagonists” (Bioorg Med Chem Lett, 1994).

Assays:
Substance-K receptor [1] = molecular target: T1, Substance-K receptor (Rattus norvegicus, UniProt P16610); assay: Binding affinity by displacement of radiolabeled GR-100679 from Tachykinin receptor 2 from homogenized rat colon
T1 sequence (P16610 whole entry): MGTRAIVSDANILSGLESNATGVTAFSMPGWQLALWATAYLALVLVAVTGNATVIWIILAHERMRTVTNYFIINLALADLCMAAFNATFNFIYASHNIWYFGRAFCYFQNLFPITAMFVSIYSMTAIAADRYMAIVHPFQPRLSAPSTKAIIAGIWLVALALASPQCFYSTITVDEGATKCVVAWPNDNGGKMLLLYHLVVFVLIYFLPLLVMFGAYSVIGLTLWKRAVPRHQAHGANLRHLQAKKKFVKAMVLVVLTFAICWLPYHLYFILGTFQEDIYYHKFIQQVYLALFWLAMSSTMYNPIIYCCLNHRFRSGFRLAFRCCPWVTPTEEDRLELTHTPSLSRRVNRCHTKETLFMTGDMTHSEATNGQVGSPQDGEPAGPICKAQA

Neuromedin-K receptor = molecular target: T2, Neuromedin-K receptor (Cavia porcellus, UniProt P30098); assay: Tested for inhibition of binding of [3H]senktide to Tachykinin receptor 3 in guinea pig cerebral cortex membranes; assay type: tissue-based, Membrane
T2 sequence (P30098 whole entry): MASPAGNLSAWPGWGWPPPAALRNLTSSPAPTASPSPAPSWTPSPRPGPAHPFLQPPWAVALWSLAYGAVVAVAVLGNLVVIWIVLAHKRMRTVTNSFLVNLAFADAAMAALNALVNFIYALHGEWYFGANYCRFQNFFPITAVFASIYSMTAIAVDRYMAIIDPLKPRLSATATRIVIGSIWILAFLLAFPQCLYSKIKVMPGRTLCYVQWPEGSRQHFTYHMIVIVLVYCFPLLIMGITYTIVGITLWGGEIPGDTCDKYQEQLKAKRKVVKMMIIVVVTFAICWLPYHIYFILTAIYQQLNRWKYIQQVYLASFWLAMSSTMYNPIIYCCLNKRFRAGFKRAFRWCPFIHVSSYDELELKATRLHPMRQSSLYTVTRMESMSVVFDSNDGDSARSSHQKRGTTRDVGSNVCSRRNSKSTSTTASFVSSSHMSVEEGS

Cavia porcellus = assay: In vivo ability to inhibit bronchoconstriction induced by GR-64349 (i.v.) in guinea pigs; assay type: functional
[2] = molecular target: T3, Substance-K receptor (Cavia porcellus) (UniProt Q64077); assay: Binding affinity against Tachykinin receptor 2 in guinea-pig trachea
T3 sequence (whole entry): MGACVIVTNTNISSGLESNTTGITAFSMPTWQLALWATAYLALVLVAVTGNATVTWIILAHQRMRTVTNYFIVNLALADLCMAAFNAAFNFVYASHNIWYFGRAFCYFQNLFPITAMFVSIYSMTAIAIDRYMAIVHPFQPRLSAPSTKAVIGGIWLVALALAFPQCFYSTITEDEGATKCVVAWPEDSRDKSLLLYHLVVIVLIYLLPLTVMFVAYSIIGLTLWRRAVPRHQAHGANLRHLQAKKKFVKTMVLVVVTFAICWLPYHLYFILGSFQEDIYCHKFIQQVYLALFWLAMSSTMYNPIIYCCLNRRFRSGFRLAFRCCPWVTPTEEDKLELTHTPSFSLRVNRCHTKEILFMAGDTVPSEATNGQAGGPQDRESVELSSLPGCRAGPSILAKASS

Substance-K receptor [3] = molecular target: T4, Substance-K receptor (Homo sapiens, UniProt P21452); assay: Binding affinity against Tachykinin receptor 2 of human expressed in chinese hamster ovary cells; assay type: cell-based, CHO
T4 sequence (P21452 whole entry): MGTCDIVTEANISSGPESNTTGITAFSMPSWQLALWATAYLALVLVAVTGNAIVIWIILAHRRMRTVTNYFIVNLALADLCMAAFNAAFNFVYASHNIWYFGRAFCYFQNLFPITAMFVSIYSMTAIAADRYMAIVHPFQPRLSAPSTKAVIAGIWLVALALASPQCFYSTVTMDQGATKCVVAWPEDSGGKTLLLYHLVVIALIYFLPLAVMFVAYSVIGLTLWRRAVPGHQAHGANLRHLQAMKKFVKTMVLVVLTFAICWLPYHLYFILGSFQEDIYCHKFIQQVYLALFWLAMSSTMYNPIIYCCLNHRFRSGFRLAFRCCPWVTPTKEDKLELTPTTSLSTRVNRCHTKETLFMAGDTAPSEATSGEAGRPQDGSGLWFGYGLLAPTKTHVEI

[4] = molecular target: T3, Substance-K receptor (Cavia porcellus)
Description: Binding affinity against NK2 receptor in guinea-pig trachea

SMILES	Ki (Substance-K receptor [1]) [nM]	also measured
[O-][S+](CC1(O)CCN(CCc2c[nH]c3ccc(F)cc23)CC1)c1ccccc1 (stereo in doubt; 6) [4-BENZENESULFINYLMETHYL-1-[2-(5-FLUORO-1H-INDOL-3-YL)-ETHYL]-PIPERIDIN-4-OL (STRUCTURAL MIX)]	0.501	–
Cc1ccccc1OCC1(O)CCN(CCc2c[nH]c3ccc(F)cc23)CC1	31.6	–
COC1(C[S@@+]([O-])c2ccccc2)CCN(CCc2c[nH]c3ccc(F)cc23)CC1	0.1	Ki (Neuromedin-K receptor): 20000 nM; Dose (Cavia porcellus): 3 µM/kg; pKB [2]: 9.7; Ki (Substance-K receptor [3]): 0.316 nM
N#Cc1ccc2[nH]cc(CCN3CCC(NC(=O)c4ccccc4)CC3)c2c1	1580	–
[O-][S@+](CC1(O)CCN(CCc2c[nH]c3ccc(F)cc23)CC1)c1ccccc1 (stereo in doubt; 8) [listing 1 of 2 here]	–	pKB [4]: 8.7
[O-][S+](CC1(O)CCN(CCc2c[nH]c3ccc(F)cc23)CC1)c1ccccc1 (stereo in doubt; 9) [4-BENZENESULFINYLMETHYL-1-[2-(5-FLUORO-1H-INDOL-3-YL)-ETHYL]-PIPERIDIN-4-OL (STRUCTURAL MIX)]	7.94	–
Cc1ccccc1OCC(O)CNCCc1c[nH]c2ccc(F)cc12 (stereo unspecified)	1000	–
[O-][S@+](CC1(O)CCN(CCc2c[nH]c3ccc(F)cc23)CC1)c1ccccc1 (stereo in doubt; 8) [listing 2 of 2 here]	0.316	Ki (Neuromedin-K receptor): 39800 nM
[O-][S@+](CC1(O)CCN(CCc2c[nH]c3ccc(F)cc23)CC1)c1ccccc1 (stereo in doubt; 5)	3.98	Dose (Cavia porcellus): 3 µM/kg
O=S(=O)(CC1(O)CCN(CCc2c[nH]c3ccc(F)cc23)CC1)c1ccccc1	31.6	–
